These results are taken from patent US12486251B2 (PHARMABLOCK SCIENCES (NANJING) , INC., priority 2020, dated 2025).

This assay deals with CBP recombinant proteins (Homo sapiens (Human), UniProt Q92793). The experiment in a line: Competitive HTRF assay for affinity to CBP recombinant protein. Format: binding. The note with it: His-tagged CBP 5 nM, biotin-labeled ligand 50 nM, 1% DMSO. Here is the method:
The affinity of the compounds synthesized in the present patert to the CBP recombinant proteins was determined by competitive HTRF method. His-tagged cyclic adenosine monophosphate response element binding protein (CREB-binding protein, CBP) was expressed in Escherichia coli system and further purified. CBP biotinylated ligands were all self-made. The BL21 star (DE3) competert cells transfected with His-tagged CBP protein genes at N-terminal were cultured at 37° C. for 16 h until the OD value was between 0.6 and 0.8, induced by 0.5 mM of IPTG and cultured overnight. The supernatant of cell lysate was purified by a Ni-ion affinity column and a Superdex75 molecular sieve column sequentially. The purity of resulting CBP proteins was 95%. The fluorescent donor reagent MAb Anti 6HIS—Eu cryptate Gold (Cisbio #61HI2KLA), the receptor reagent Streptavidin-XL665 (#610SAXLA) and the detection buffer (#62SDBRDD) required for HTRF were obtained from CISBIO BIOASSAYS (Codolet, France). Tris(2-carboxyethyl)phosphine hydrochloride (TCEP), sodium chloride, adenosine triphosphate (ATP), Tween-20, dimethylsulfoxide (DMSO), bovine serum albumin (BSA) and HEPES buffer were obtained from SIGMA at the highest level commercially available.
The general procedure of the competitive HTRF assay for the affinity to CBP recombinant proteins is as follows: 0.05% Tween-20 and 1 mM of TCEP were added immediately before the assay, and the assay was performed in a buffer consisting of 0.1 mg/ml BSA, 50 mM of HEPES and 5 mM of NaCl of pH 7.5. 2.5 μL of compound solution in a determination buffer with 4% DMSO and 5 μL of CBP solution in a determination buffer were added to a white low-volume 384-well microtiter plate, incubated at room temperature for 20 min, and then incubated at room temperature for 40 min by adding 2.5 μL of biotin-labeled ligand solution to the determination buffer. The final concentrations of CBP, biotin-labeled ligand and DMSO were 5 nM, 50 nM and 1%, respectively. Then, 5 μL of MAb Anti 6HIS—Eu cryptate Gold and […] of Streptavidin-XL665 in detection buffers from the manufacturer were added to the mixture, and the mixture was incubated for another 60 min. The final concentration of Streptavidin-XL665 was 12.5 nM, and MAb Anti 6HIS—Eu cryptate Gold was diluted according to the final concentration provided by the supplier. The multimode reader Spark from TECAN (Mannedorf, Switzerland) was used to read the plate to detect the homogeneous time-resolved fluorescence intensity of two groups, in which the excitation wavelength was 320 nm and the emission wavelengths were 665 nm and 620 nm. The IC50 value of the inhibitor was obtained by fitting fluorescence intensity ratios at 665 nm/620 nm with respect to the inhibitor concentration in an S-shaped dose-response curve by using Prism 7 (La Jolla, 15 CA).
On the technique in general: Time-resolved FRET reads energy transfer from a long-lived donor to a nearby acceptor.

CBP recombinant proteins, sequence (Q92793 whole entry): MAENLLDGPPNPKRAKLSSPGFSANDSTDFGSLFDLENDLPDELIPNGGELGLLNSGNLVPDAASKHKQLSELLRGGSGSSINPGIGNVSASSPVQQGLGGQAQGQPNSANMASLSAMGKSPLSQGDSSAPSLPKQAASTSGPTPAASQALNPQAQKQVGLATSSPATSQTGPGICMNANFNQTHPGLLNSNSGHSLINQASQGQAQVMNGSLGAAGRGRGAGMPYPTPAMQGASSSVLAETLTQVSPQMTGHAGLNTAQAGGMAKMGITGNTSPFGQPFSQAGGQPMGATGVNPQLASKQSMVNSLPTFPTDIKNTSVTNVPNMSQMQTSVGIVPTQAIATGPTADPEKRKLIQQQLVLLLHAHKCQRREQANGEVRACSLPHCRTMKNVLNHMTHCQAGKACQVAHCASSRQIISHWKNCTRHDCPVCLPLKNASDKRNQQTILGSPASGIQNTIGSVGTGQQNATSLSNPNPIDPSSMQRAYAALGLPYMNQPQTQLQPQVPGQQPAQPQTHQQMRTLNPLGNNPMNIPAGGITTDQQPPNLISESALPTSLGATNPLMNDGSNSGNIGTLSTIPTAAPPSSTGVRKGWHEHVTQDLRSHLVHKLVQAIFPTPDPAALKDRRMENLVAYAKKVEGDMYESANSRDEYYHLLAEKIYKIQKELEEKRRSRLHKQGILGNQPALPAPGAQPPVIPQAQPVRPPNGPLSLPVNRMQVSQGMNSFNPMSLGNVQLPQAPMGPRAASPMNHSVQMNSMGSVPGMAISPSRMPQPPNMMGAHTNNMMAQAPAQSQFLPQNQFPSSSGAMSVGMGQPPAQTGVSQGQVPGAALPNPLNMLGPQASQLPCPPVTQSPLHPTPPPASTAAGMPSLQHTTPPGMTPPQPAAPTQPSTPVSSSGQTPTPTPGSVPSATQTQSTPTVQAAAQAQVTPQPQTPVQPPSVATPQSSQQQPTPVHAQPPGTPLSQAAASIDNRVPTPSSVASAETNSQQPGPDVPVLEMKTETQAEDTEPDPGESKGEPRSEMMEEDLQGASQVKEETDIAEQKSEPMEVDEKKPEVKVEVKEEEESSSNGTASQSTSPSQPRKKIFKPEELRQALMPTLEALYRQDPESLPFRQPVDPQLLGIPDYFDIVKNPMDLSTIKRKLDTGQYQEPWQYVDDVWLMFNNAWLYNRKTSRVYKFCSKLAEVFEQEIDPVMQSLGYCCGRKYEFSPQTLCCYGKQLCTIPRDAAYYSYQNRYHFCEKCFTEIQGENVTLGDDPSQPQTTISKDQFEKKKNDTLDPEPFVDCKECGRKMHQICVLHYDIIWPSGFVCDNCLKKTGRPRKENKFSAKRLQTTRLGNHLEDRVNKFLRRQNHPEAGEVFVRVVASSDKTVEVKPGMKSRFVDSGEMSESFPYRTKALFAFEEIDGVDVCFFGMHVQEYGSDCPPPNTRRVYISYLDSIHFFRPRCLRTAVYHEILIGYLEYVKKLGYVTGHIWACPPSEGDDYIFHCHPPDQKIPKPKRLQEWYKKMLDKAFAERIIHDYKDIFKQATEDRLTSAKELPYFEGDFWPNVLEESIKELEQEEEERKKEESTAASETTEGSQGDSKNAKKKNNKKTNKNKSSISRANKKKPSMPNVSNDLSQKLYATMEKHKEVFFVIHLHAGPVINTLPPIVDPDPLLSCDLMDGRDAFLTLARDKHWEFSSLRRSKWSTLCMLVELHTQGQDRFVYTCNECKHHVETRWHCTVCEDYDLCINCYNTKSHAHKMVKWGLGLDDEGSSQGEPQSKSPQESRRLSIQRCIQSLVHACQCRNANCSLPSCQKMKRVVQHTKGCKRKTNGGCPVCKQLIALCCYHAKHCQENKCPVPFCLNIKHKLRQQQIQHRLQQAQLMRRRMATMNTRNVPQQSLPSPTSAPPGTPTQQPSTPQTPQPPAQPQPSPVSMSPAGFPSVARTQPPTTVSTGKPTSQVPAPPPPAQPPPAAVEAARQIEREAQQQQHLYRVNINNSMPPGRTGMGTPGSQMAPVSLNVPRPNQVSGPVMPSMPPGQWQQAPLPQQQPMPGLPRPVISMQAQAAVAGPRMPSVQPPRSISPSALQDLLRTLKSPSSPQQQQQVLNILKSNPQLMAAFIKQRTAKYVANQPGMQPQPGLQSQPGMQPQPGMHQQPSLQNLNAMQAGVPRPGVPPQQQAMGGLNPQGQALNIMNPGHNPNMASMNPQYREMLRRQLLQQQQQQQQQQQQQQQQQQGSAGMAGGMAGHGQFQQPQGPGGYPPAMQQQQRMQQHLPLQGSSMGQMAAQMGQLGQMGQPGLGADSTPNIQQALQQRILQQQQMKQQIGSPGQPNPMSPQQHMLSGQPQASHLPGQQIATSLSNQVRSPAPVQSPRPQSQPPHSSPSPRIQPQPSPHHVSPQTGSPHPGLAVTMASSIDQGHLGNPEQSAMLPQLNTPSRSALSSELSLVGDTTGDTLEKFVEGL

What is called IC50 is the concentration that gives 50% inhibition. Turning to `CNC(=O)c1cc2cc(N3CCCS3(=O)=O)ccc2c(N2CCCc3cc(-c4cnn(C)c4)c(C(F)F)cc32)n1` [Example 26, 1-(7-(difluoromethyl)-6-(1-methyl-1H-pyrazol-4-yl)-3,4-dihydroquinolin-1(2H)-yl)-6-(1,1-dioxyisothiazolidin-2-yl)-N-methyliso-quinoline-3-carboxamide], the IC50 stood at 11 nM.
For `CNC(=O)c1cc2cc(N3CCN(C)CC3=O)ccc2c(N2CCCc3cc(-c4cnn(C)c4)c(C(F)F)cc32)n1` [Example 27, 1-[7-difluoromethyl-6-(1-methyl-1H-pyrazol-4-yl)-3,4-dihydro-2H-quinolin-1-yl]-6-(4-methyl-2-oxo-piperazin-1-yl)-isoquinoline-3-carboxylic acid methylamide], the concentration for half-maximal inhibition (IC50) was determined as 3.3 nM.
Next, `CNC(=O)c1cc2cc(N3CCOCC3=O)ccc2c(N2CCCc3cc(-c4cnn(C)c4)c(C(F)F)cc32)n1` [Example 28, 1-[7-difluoromethyl-6-(1-methyl-1H-pyrazol-4-yl)-3,4-dihydro-2H-quinolin-1-yl]-6-(3-oxo-morpholin-4-yl)-isoquinoline-3-carboxylic acid methylamide]: 5.3 nM; `CNC(=O)c1cc2cc(C3CCCO3)ccc2c(N2CCCc3cc(-c4cnn(C)c4)c(C(F)F)cc32)n1` (stereo not drawn) [Example 29, 1-[7-difluoromethyl-6-(1-methyl-1H-pyrazol-4-yl)-3,4-dihydro-2H-quinolin-1-yl]-6-(tetrahydrofuran-2-yl)-isoquinoline-3-carboxylic acid methylamide]: 16 nM.
Next, `CNC(=O)c1cc2ccccc2c(N2CCCc3cc(-c4cncnc4)c(C(F)F)cc32)n1` [Example 30, 1-(7-difluoromethyl-6-pyrimidine-5-yl-3,4-dihydro-2H-quinolin-1-yl)-isoquinoline-3-carboxylic acid methylamide]: 22 nM; `CNC(=O)c1cc2ccccc2c(N2CCCc3cc(C4=CCOCC4)c(C(F)F)cc32)n1` [Example 31, 1-[7-difluoro-methyl-6-(3,6-dihydro-2H-pyran-4-yl)-3,4-dihydro-2H-quino-lin-1-yl]-iso-quinoline-3-carboxylic acid methylamide]: 49 nM; `CCn1cc(-c2cc3c(cc2C(F)F)N(c2nc(C(=O)NC)cc4ccccc24)CCC3)cn1` [Example 32, 1-[7-difluoro-methyl-6-(1-ethyl-1H-pyrazol-4-yl)-3,4-dihydro-2H-quinolin-1-yl]-isoquino-line-3-carboxylic acid methylamide]: 36 nM.
Next, `CNC(=O)c1cc2ccccc2c(N2CCCc3cc(-c4cnn(C5CC5)c4)c(C(F)F)cc32)n1` [Example 33, 1-[6-(1-cyclo-propyl-1H-pyrazol-4-yl)-7-difluoromethyl-3,4-dihydro-2H-quino-lin-1-yl]-iso-quinoline-3-carboxylic acid methylamide]: 44 nM; `CNC(=O)c1cc2ccccc2c(N2CCCc3cc(-c4ccn(C)n4)c(C(F)F)cc32)n1` [Example 34, 1-[7-difluoro-methyl-6-(1-methyl-1H-pyrazol-3-yl)-3,4-dihydro-2H-quinolin-1-yl]-isoquinoline-3-carboxylic acid methylamide]: 32 nM.
In the case of `CNC(=O)c1cc2ccccc2c(N2CCCc3cc(-c4cnn(CCO)c4)c(C(F)F)cc32)n1` [Example 35], the IC50 was 16 nM.
For `CNC(=O)c1cc2cccnc2c(N2CCCc3cc(-c4cncnc4)c(C(F)F)cc32)n1` [Example 37, 8-(7-difluoro-methyl-6-pyrimidine-5-yl-3,4-dihydro-2H-quinolin-1-yl)-[1,7] naphthyridine-6-carboxylic acid methylamide], the half-inhibitory concentration (IC50) was determined as 16 nM.
As for `CNC(=O)c1cc2cccnc2c(N2CCCc3cc(-c4cnn(CS(C)(=O)=O)c4)c(C(F)F)cc32)n1` [Example 38, 8-[7-difluoro-methyl-6-(1-methanesulfonyl-methyl-1H-pyrazol-4-yl)-3,4-dihydro-2H-quinolin-1-yl]-[1,7] naphthyridine-6-carboxylic acid methylamide], the concentration for half-maximal inhibition (IC50) was found to be 14 nM.
Consider `CNC(=O)c1cc2cccnc2c(N2CCCc3cc(-c4ccnnc4)c(C(F)F)cc32)n1` [Example 39, 8-(7-difluoro-methyl-6-pyrida-zine-4-yl-3,4-dihydro-2H-quinolin-1-yl)-[1,7] naphthyridine-6-carboxylic acid methylamide], for which the concentration for half-maximal inhibition (IC50) worked out at 13 nM.
As to `CNC(=O)c1cc2ccccc2c(N2CCC(NC)c3cc(-c4cnn(C)c4)ccc32)n1` (stereo not drawn) [Example 40, 1-[4-methylamino-6-(1-methyl-1H-pyrazol-4-yl)-3,4-dihydro-2H-quinolin-1-yl]-isoquinoline-3-carboxylic acid methylamide], the IC50 is 62 nM.
Next, `CNC(=O)c1cc2ccccc2c(N2CCC(O)c3cc(-c4cnn(C)c4)ccc32)n1` (stereo not drawn) [Example 41, 1-[4-hydroxy-6-(1-methyl-1H-pyrazol-4-yl)-3,4-dihydro-2H-quinolin-1-yl]isoquinoline-3-carboxylic acid methylamide]: 57 nM; `CNC(=O)c1cc2ccccc2c(N2CCCc3cc(C4=CCNCC4)c(C(F)F)cc32)n1` [Example 42]: 50 nM.
Next, `CNC(=O)c1cc2cccnc2c(N2CCCc3cc(C4=CCN(C(C)=O)CC4)c(C(F)F)cc32)n1` [Example 43, 8-[6-(1-acetyl-1,2,3,6-tetrahydropyridin-4-yl)-7-difluoromethyl-3,4-dihydro-2H-quinolin-1-yl]-[1,7]naphthyridine-6-carboxylic acid methylamide]: 6.7 nM; `CNC(=O)c1cc2cccnc2c(N2CCCc3cc(C4=CCN(C)CC4)c(C(F)F)cc32)n1` [Example 44, 8-[7-difluoromethyl-6-(1-methyl-1,2,3,6-tetrahydropyridin-4-yl)-3,4-dihydro-2H-quinolin-1-yl]-[1,7]naphthyridine-6-carboxylic acid methylamide]: 64 nM; `CNC(=O)c1cc2cccnc2c(N2CCCc3cc(C4=CCN(S(C)(=O)=O)CC4)c(C(F)F)cc32)n1` [Example 45, 8-[7-difluoromethyl-6-(1-methanesulfonyl-1,2,3,6-tetrahydropyridin-4-yl)-3,4-dihydro-2H-quinolin-1-yl]-[1,7]naphthyridine-6-carboxylic acid methylamide]: 8.5 nM.
Next, `CNC(=O)c1cc2cccnc2c(N2CCCc3cc(C4CCN(C(C)=O)CC4)c(C(F)F)cc32)n1` [Example 46, 8-[6-(1-acetylpiperidin-4-yl)-7-difluoromethyl-3,4-dihydro-2H-quinolin-1-yl]-[1,7]naphthyridine-6-carboxylic acid methylamide]: 5.4 nM; `CNC(=O)c1cc2ncccc2c(N2CCCc3cc(C4CCN(C(C)=O)CC4)c(C(F)F)cc32)n1` [Example 47, 5-[6-(1-acetylpiperidin-4-yl)-7-difluoro-methyl-3,4-dihydro-2H-quinolin-1-yl]-[1,6] naphthyridine-7-carboxylic acid methylamide]: 31 nM.
Take `CNC(=O)c1cc2cnccc2c(N2CCCc3cc(C4CCN(C(C)=O)CC4)c(C(F)F)cc32)n1` [Example 48, 1-[6-(1-acetylpiperidin-4-yl)-7-difluoro-methyl-3,4-dihydro-2H-quinolin-1-yl]-[2,6] naphthyridine-3-carboxylic acid methylamide]: the IC50 came out at 13 nM.
Consider `CNC(=O)c1cc2ccncc2c(N2CCCc3cc(C4CCN(C(C)=O)CC4)c(C(F)F)cc32)n1` [Example 49, 1-[6-(1-acetylpiperidin-4-yl)-7-difluoro-methyl-3,4-dihydro-2H-quinolin-1-yl]-[2,7] naphthyridine-3-carboxylic acid methylamide], for which the half-inhibitory concentration (IC50) was 12 nM.
For the compound `CNC(=O)c1cc2cc(Cl)cnc2c(N2CCCc3cc(C4CCN(C(C)=O)CC4)c(C(F)F)cc32)n1` [Example 50, 8-[6-(1-acetylpiperidin-4-yl)-7-difluoro-methyl-3,4-dihydro-2H-quinolin-1-yl]-3-chloro-[1,7] naphthyridine-6-carboxylic acid methylamide], the IC50 came out at 54 nM.
